Literature values, collected in patent US6906047B2, “Aqueous ifosfamide composition” (Gensia Sicor Pharmaceuticals, Inc., priority 2001, dated 2005).

## O=P1(NCCCl)OCCCN1CCCl (stereo not shown) [ifosfamide, 3-(2-chloroethyl)-2-[(2-chloroethylamino)]-tetrahydro-2H-1,3,2-oxazaphosphorin-2-oxide]
  solubility of ifosfamide in water: about 10 % by weight
